Test results reported in patent US11028137B2, “Mutant islet amyloid polypeptides with improved solubility and methods for using the same” (priority 2017, dated 2021).
Where a SMILES comes first, the peptide text is derived from it.

Assays:
[1] = Thioflavin-T fluorescence assay of amyloid formation kinetics; format: physicochemical; details: 16 μM peptide, 10 mM PBS pH 7.4, 25° C., no stirring; for amyloid formation monitored by thioflavin-T fluorescence: 1 week and 6 week incubations
Method: Sample Preparation. Each peptide was dissolved into 100% hexafluoroisoproponal (HFIP) to make a 0.5 mM stock solution. Stock solutions were filtered using […] Acrodisc syringe filter with a GHP membrane and the required amount of peptide was lyophilized overnight to remove HFIP. Dry peptide was dissolved into the appropriate buffer for the fluorescence assays. Fluorescence Assays. Thioflavin-T binding assays, conducted without HFIP or stirring at 25° C., were utilized to monitor amyloid formation kinetics. Fluorescence measurements were performed using a Spectramax Gemini EM plate reader. Corning 96-well non-binding surface black plates with lids were used and were sealed with polyethylene sealing tape. Samples were prepared by dissolving dry peptide into 10 mM PBS buffer (pH 7.4) and 32 μM thioflavin-T solution immediately before the measurement. Thioflavin-T fluorescence was measured with 450 nm excitation and emission at 485 nm was monitored. The final concentrations were 16 μM peptides. After creating the mutant-hIAPP polypeptides of the present disclosure, applicants tested the propensity of the different analogs to form amyloid at pH 7.4 using thioflavin-T fluorescence assays (FIGS. 2A-D) and TEM (FIGS. 3A-E). […] Amyloid formation follows a sigmoidal time course consisting of a lag phase in which few, if any, fibrils are formed, followed by a growth phase and a saturation phase in which amyloid fibrils are in equilibrium with soluble peptide.

[2] = Transmission electron microscopy (TEM) of amyloid aggregates; format: physicochemical; details: for amyloid aggregates in TEM images: after 7 days of incubation, end of kinetic experiment
Method: Transmission Electron Microscopy (TEM). TEM images were recorded using an FEI Bio TwinG^2 Transmission Electron Microscope at the central microscopy center at Stony Brook University. 15 μL aliquots of the samples used for fluorescence assays were removed at the end of each kinetic experiment, blotted on a carbon formvar-coated 300-mesh copper grid for 1 min and then negatively stained with saturated uranyl acetate for 1 min. Images were taken at a 68,000× magnification and 100 nm under focus. Mutant-hIAPP polypeptides of the present disclosure were further analyzed using TEM. […] In contrast, no amyloid fibrils were formed after a 1 week (FIGS. 3B-E, left) or 6 week (FIGS. 3B-E, right) culture with the any of the mutant-hIAPP analogs tested.

[3] = pH 7.4
Method: Dry peptides were dissolved into 10 mM PBS buffer at pH 7.4 at different initial concentrations, and were incubated for 7 days at 25° C. without stirring. Each sample was then centrifuged using a Beckman Coulter Microfuge 22R Centrifuge at 24° C. for 20 min. The relative centrifugal force used was 1.75×10^4 g. Solubility of each sample was approximated by measuring the absorbance of the corresponding supernatant at 280 nm measured using a Beckman Coulter DU 730 UV/Vis Spectrophotometer.
Each peptide tested was incubated in 10 mM PBS buffer at pH 7.4 for 7 days at three different concentrations (100 μM, 500 μM and 1 mM) and the solution was then centrifuged. The apparent solubility was represented by the absorbance of the supernatant of each sample measured at 280 nm. The extinction coefficients of all polypeptides are very similar at 280 nm since they all contain the same aromatic residues and each contains a disulfide bond. […] A peptide which is soluble at 1 mM and above will show a linear dependence of absorbance on initial concentration. A peptide which is less soluble will deviate from linearity. The peptides were centrifuged after 7 days and their apparent solubility measured by measuring the absorbance at 280 nm of the supernatant of each solution. The apparent concentration refers to the concentration which would be obtained if all of the peptide dissolved. The absorbance of the supernatant is directly proportion to the amount of peptide in solution.

[4] = pH 7
Method: 100 μL each solution was obtained immediately following dissolution with Novolin-N® and was centrifuged using a Beckman Coulter Microfuge (22R Centrifuge) at 24° C. for 20 minutes. The relative centrifugal force used was 1.75×104 g. Aliquots of each sample were immediately frozen and lyophilized. The remaining portion of each sample was not centrifuged and were incubated at 25° C. without stirring. Samples were collected again following the same procedures after 1 day, 7 days and 30 days. Dry samples were redissolved in 4:1 HPLC buffer mix (4A:1B, below) and immediately injected for liquid chromatography-mass spectroscopy (LC-MS) measurements. The HPLC buffers were (A) H2O (0.1% acetic acid and 0.02% TFA) and (B) CH3CN (0.1% acetic acid and 0.02% TFA). Solubility of each co-formulated sample was determined by measuring the absorbance from the liquid chromatogram traces at 215±8 nm and at 277±8 nm at each time point tested. points (0 hours, 24 hours, 7 days and 30 days post-formulation).

[5] = target: T1, human calcitonin receptor (hCT(a)) (Homo sapiens, UniProt P30988); assay: cAMP production (LANCE cAMP assay) in transfected Cos-7 cells; format: cell-based; details: cAMP production, Cos-7 cells expressing hCT(a); mean ± spread; read-out: Human calcitonin receptor binding data pEC50 (converted)
T1 construct: expressed in transfected cells; host or cells: Cos-7 cells, transient transfection with PEI, pcDNA3.1 vectors
T1 sequence (P30988 25-474): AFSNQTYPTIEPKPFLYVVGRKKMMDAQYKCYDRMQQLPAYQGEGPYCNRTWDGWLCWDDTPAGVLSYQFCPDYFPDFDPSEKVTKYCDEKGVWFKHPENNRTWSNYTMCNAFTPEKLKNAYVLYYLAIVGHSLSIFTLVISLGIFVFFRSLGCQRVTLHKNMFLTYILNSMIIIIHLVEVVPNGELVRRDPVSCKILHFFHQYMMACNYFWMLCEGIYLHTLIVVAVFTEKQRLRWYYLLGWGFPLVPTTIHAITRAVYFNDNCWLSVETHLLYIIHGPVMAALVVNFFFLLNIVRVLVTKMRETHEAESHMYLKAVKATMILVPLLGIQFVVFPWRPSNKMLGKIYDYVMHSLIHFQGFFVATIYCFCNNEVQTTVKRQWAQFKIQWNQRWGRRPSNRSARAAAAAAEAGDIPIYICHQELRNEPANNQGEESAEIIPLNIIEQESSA
Method: (§1) Cell Culture and Transfection. Cos-7 cells were cultured and transfected for receptor activity assays as previously described in Bailey, R. J., and Hay, D. L. Peptides (2006) 27, pp. 1367-1375, the entire contents of which is incorporated herein by reference. Specifically, cells were cultured in Dulbucco's modified eagle medium (DMEM) with 8% heat-inactivated fetal bovine serum (FBS) and kept in a 37° C. humidified 95% air/5% CO2 incubator. Cells were plated at a density of 18,000-20,000 cells/well (depending on cell passage) in 96-well culture plate and returned to the incubator for approximately 18-24 hours. Transient transfections were carried out using polyethyleneimine (PEI) as described previously and maintained at 37° C. in a humidified 95% air/5% CO2 incubator for 36-48 hours. All DNA constructs used in this these were in pcDNA3.1 vectors.
(§2) cAMP Assay: Measurement of intracellular cAMP was achieved using a time-resolved fluorescent resonance energy transfer assay (LANCE cAMP assay, PerkinElmer), similar to the previously described Alphascreen assay as described in Gingell, J. J., et al. Peptides (2010) 31, pp. 1400-1404, with the following changes. Following stimulation with peptide agonist, cAMP assay media from the wells was thoroughly aspirated and 50 μl of ice-cold absolute ethanol added to each well. Plates were then placed in a −30° C. freezer for 10 minutes or overnight prior to assay, then removed and allowed to air dry in a fume hood for 1-2 hours. After ethanol evaporated from the plates, 50 μl of LANCE detection buffer (lysis buffer, 0.35% Triton X-100, 50 mM HEPES and 10 mM calcium chloride in ddH2O, pH 7.4) was added per well and left on a plate shaker for 10-15 minutes at room temperature. Meanwhile, a cAMP standard curve was generated using LANCE detection buffer and a serially diluted cAMP standard (50 μM) ranging from 1 μM to 10 pM. The serially diluted cAMP standards (5 μl) and cell lysates (5 μl) were transferred into 384-well opti-plates and sealed with a Sealplate®-A-384-well microplate adhesive film and briefly centrifuged (10 seconds, 500 rpm, 23° C.). A 1:200 dilution of LANCE assay Alexa Fluor® 647 anti-cAMP antibody was prepared in detection buffer and 5 μl added to each well. Plates were sealed and briefly centrifuged again (10 seconds, 500 rpm, 23° C.) and left to incubate, sealed for 30 minutes at room temperature. During this incubation, detection mix was made up consisting of detection buffer, Europium-W8044 labelled streptavidin (1:4500) and biotin-cAMP (1:1500). After 30 minutes incubation, 10 μl of detection mix was added to each well, plates were centrifuged (30 seconds, 500 rpm, 23° C.), sealed and left to incubate for 1 hour at room temperature. Plates were read after an overnight incubation on an Envision plate reader. A standard curve was included in each experiment to ensure accurate quantification of cAMP.
(§3) Data Analysis for Receptor Assays: Data were derived from independent experiments for statistical analysis and all experiments were performed and replicated. Quantification of cAMP was obtained from a standard curve included in each experiment and plotted using the software GraphPad Prism 6.0 (GraphPad Software Inc, San Diego, Calif., USA) with a non-linear regression 3-parameter logistic equation with a Hill Slope of 1 to determine the pEC50. The pEC50 values from the fits were combined from different experimental days and statistically tested for difference from the WT peptide using the Student's t-test with statistical significance defined as * p<0.05, ** p<0.01, *** p<0.001. Due to variability in amount of cAMP produced between experimental days, data were normalized to the control peptide for each experiment to obtain Emax values. For each analogue, data were normalized to the maximum (Emax) and minimum (Emin) responses of h-amylin. […]

[6] = target: T2, human amylin receptor (hAMY1(a)) (Homo sapiens, UniProt O60894+P30988); assay: as above; format: cell-based; details: cAMP production, Cos-7 cells expressing hAMY1(a); mean ± spread; read-out: Human Amylin1(a) receptor binding data pEC50 (converted)
T2 construct: expressed in transfected cells; host or cells: Cos-7 cells, transient transfection with PEI, pcDNA3.1 vectors
T2 sequence (O60894 27-148 partner, one chain of several): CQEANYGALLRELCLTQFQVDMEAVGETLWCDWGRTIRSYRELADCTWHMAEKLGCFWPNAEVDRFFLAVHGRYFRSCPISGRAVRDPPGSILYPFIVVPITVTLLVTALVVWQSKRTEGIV
Method: as §1, §2, §3

Row | Structure (SMILES) | amyloid formation monitored by thioflavin-T fluorescence [1] | amyloid aggregates in TEM images [2] | solubility at neutral pH (absorbance of supernatant at 280 nm) [3] | solubility co-formulated with Novolin-N (absorbance at 215 nm and 277 nm, LC-MS) [4] | EC50 [5] [nM] | EC50 [6] [nM] | time at which amyloid formation reaches the saturation phase ([1]; 32 μM thioflavin-T) [h] | amyloid fibrils in TEM images ([2]; after 1 week and 6 week time periods)
1 | CC[C@H](C)[C@H](NC(=O)[C@H](C)NC(=O)CNC(=O)[C@H](Cc1ccccc1)NC(=O)[C@H](CC(N)=O)NC(=O)[C@H](CCCCN)NC(=O)[C@H](CO)NC(=O)[C@H](CO)NC(=O)[C@H](Cc1c[nH]cn1)NC(=O)[C@@H](NC(=O)[C@H](CC(C)C)NC(=O)[C@H](Cc1ccccc1)NC(=O)[C@H](CC(N)=O)NC(=O)[C@H](C)NC(=O)[C@H](CC(C)C)NC(=O)[C@H](CCCNC(=N)N)NC(=O)[C@H](CCC(N)=O)NC(=O)[C@@H](NC(=O)[C@H](C)NC(=O)[C@@H]1CSSC[C@H](NC(=O)[C@@H](N)CCCCN)C(=O)N[C@@H](CC(N)=O)C(=O)N[C@@H]([C@@H](C)O)C(=O)N[C@@H](C)C(=O)N[C@@H]([C@@H](C)O)C(=O)N1)[C@@H](C)O)C(C)C)C(=O)N[C@@H](CC(C)C)C(=O)N[C@@H](CO)C(=O)N[C@@H](CO)C(=O)N[C@H](C(=O)N[C@@H](CC(N)=O)C(=O)N[C@H](C(=O)NCC(=O)N[C@@H](CO)C(=O)N[C@@H](CCCCN)C(=O)N[C@H](C(=O)N[C@@H](Cc1ccc(O)cc1)C(N)=O)[C@@H](C)O)C(C)C)[C@@H](C)O [SEQ ID NO: 7] (HELM PEPTIDE1{K.C.N.T.A.T.C.A.T.Q.R.L.A.N.F.L.V.H.S.S.K.N.F.G.A.I.L.S.S.T.N.V.G.S.K.T.Y.[am]}$PEPTIDE1,PEPTIDE1,2:R3-7:R3$$$V2.0) | none of the mutant hIAPP polypeptides forms amyloid | no aggregates are observed | more substantially soluble than wild-type hIAPP | significantly higher absorbance when compared to both wild-type hIAPP and paramlintide | 2.4 | 0.741 |  | 
2 | CC(C)C[C@H](NC(=O)[C@H](CCCNC(=N)N)NC(=O)[C@H](CCC(N)=O)NC(=O)[C@@H](NC(=O)[C@H](C)NC(=O)[C@@H]1CSSC[C@H](NC(=O)[C@@H](N)CCCCN)C(=O)N[C@@H](CC(N)=O)C(=O)N[C@@H]([C@@H](C)O)C(=O)N[C@@H](C)C(=O)N[C@@H]([C@@H](C)O)C(=O)N1)[C@@H](C)O)C(=O)N[C@@H](C)C(=O)N[C@@H](CC(N)=O)C(=O)N[C@@H](Cc1ccccc1)C(=O)N[C@@H](CC(C)C)C(=O)N[C@H](C(=O)N[C@@H](Cc1c[nH]cn1)C(=O)N[C@@H](CO)C(=O)N[C@@H](CO)C(=O)N[C@@H](CCCCN)C(=O)N[C@@H](CC(N)=O)C(=O)N[C@@H](Cc1ccccc1)C(=O)N1CCC[C@H]1C(=O)N[C@@H](C)C(=O)N1CCC[C@H]1C(=O)N[C@@H](CC(C)C)C(=O)N[C@@H](CO)C(=O)N[C@@H](CO)C(=O)N[C@H](C(=O)N[C@@H](CC(N)=O)C(=O)N[C@H](C(=O)NCC(=O)N[C@@H](CO)C(=O)N[C@@H](CCCCN)C(=O)N[C@H](C(=O)N[C@@H](Cc1ccc(O)cc1)C(N)=O)[C@@H](C)O)C(C)C)[C@@H](C)O)C(C)C [SEQ ID NO: 8] (HELM PEPTIDE1{K.C.N.T.A.T.C.A.T.Q.R.L.A.N.F.L.V.H.S.S.K.N.F.P.A.P.L.S.S.T.N.V.G.S.K.T.Y.[am]}$PEPTIDE1,PEPTIDE1,2:R3-7:R3$$$V2.0) | none of the mutant hIAPP polypeptides forms amyloid | no aggregates are observed | more substantially soluble than wild-type hIAPP | significantly higher absorbance when compared to both wild-type hIAPP and paramlintide | 10.7 | 1.78 |  | 
3 | CC[C@H](C)[C@H](NC(=O)[C@H](C)NC(=O)CNC(=O)[C@H](Cc1ccccc1)NC(=O)[C@H](CC(N)=O)NC(=O)[C@H](CC(N)=O)NC(=O)[C@H](CO)NC(=O)[C@H](CO)NC(=O)[C@H](Cc1c[nH]cn1)NC(=O)[C@@H](NC(=O)[C@H](CC(C)C)NC(=O)[C@H](Cc1ccccc1)NC(=O)[C@H](CC(N)=O)NC(=O)[C@H](C)NC(=O)[C@H](CC(C)C)NC(=O)[C@H](CCCNC(=N)N)NC(=O)[C@H](CCC(N)=O)NC(=O)[C@@H](NC(=O)[C@H](C)NC(=O)[C@@H]1CSSC[C@H](NC(=O)[C@@H](N)CCCCN)C(=O)N[C@@H](CC(N)=O)C(=O)N[C@@H]([C@@H](C)O)C(=O)N[C@@H](C)C(=O)N[C@@H]([C@@H](C)O)C(=O)N1)[C@@H](C)O)C(C)C)C(=O)N[C@@H](CC(C)C)C(=O)N[C@@H](CO)C(=O)N[C@@H](CO)C(=O)N[C@H](C(=O)N[C@@H](CC(N)=O)C(=O)N[C@H](C(=O)NCC(=O)N[C@@H](CO)C(=O)N[C@@H](CC(N)=O)C(=O)N[C@H](C(=O)N[C@@H](Cc1ccc(O)cc1)C(N)=O)[C@@H](C)O)C(C)C)[C@@H](C)O [Wild-type hIAPP, reference compound] | forms significant amounts of amyloid | extensive amounts of amyloid fibers |  |  |  |  | ≤ 30 | typical amyloid fibril morphology
